Reference: patent publication US10076525B2, “Sex steroid precursors alone or in combination with selective estrogen receptor modulators for the prevention and treatment of dyspareunia in postmenopausal women” (ENDORECHERCHE, INC., priority 2004, dated 2018)

Assays:
[1] = Body weight after 14-day intravaginal DHEA suppository; assay type: in vivo, rat; settings: OVX rats, 14 days
Source text: The animals were housed individually and were allowed free access to water and rodent food (Lab Diet 5002, Ralston Purina, St-Louis, Mo.).
The insertion into the vagina of one suppository began on day 5 of the study and was continued once daily until day 18 of the study, for a total of 14 days of treatment. The suppository was gently placed in the vaginal opening and then delicately pushed about 2-3 mm inside the vagina with the help of a small, smooth glass stick, disinfected in 70% alcohol and dried between each animal.

[2] = DHEA blood levels after topical DHEA (Example 1); assay type: in vivo, rat; settings: DHEA 80 mg/kg topically on dorsal skin, rats
Source text: Animals from the intact and OVX control groups received the vehicle alone.

C[C@]12CC[C@H](O)CC1=CC[C@@H]1[C@@H]2CC[C@]2(C)C(=O)CC[C@@H]12 [DHEA, dehydroepiandrosterone]
body weight compared with placebo group ([1]; DHEA 0.33 mg suppository intravaginal): slightly decreased
body weight compared with placebo group ([1]; DHEA 0.66 mg suppository intravaginal): slightly decreased
decrease of body weight compared with placebo group ([1]; DHEA 1 mg suppository intravaginal): more pronounced
DHEA blood levels [2]: 70 to 100 nmol/L
